The source of these data is ChEMBL document CHEMBL4145505, “Rational design, chemical synthesis and biological evaluation of novel biguanides exploring species-specificity responsiveness of TAAR1 agonists” (Eur J Med Chem, 2018).

Some results are limits rather than exact numbers.

The target of experiment [1] is T1, Trace amine-associated receptor 5 (Mus musculus, UniProt Q5QD14).
T1 sequence (Q5QD14 whole entry): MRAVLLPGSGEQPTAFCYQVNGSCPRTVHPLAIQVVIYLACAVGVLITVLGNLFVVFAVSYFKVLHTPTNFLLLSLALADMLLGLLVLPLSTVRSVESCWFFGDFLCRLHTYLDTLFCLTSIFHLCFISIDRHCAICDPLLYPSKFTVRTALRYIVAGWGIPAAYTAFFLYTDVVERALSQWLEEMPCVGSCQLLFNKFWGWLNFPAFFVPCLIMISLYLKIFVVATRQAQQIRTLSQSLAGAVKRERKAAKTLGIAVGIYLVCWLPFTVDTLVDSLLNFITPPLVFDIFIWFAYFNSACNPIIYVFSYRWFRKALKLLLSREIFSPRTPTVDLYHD
Description: Agonist activity at mouse TAAR5 expressed in HEK293 cells assessed as cAMP accumulation after 20 mins by BRET assay. Type of experiment: functional, cell-based.

The target in experiment [2] is Trace amine-associated receptor 1 (Mus musculus, UniProt Q923Y8). Description: Agonist activity at mouse TAAR1 expressed in HEK293 cells assessed as cAMP accumulation after 20 mins by BRET assay. Type of experiment: functional, cell-based.
Sequence of Trace amine-associated receptor 1 (Mus musculus, UniProt Q923Y8) (Q923Y8 whole entry): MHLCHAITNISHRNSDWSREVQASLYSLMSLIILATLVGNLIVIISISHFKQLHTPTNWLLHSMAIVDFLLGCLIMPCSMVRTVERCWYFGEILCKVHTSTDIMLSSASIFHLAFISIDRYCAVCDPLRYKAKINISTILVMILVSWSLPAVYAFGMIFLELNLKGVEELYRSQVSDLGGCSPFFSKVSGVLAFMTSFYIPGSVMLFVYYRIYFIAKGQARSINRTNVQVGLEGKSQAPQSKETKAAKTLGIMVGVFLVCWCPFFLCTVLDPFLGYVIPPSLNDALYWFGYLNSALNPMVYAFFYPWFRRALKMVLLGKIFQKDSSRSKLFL
Experiment [3] concerns the target T2, Trace amine-associated receptor 1 (Homo sapiens, UniProt Q96RJ0).
T2 sequence (Q96RJ0 whole entry): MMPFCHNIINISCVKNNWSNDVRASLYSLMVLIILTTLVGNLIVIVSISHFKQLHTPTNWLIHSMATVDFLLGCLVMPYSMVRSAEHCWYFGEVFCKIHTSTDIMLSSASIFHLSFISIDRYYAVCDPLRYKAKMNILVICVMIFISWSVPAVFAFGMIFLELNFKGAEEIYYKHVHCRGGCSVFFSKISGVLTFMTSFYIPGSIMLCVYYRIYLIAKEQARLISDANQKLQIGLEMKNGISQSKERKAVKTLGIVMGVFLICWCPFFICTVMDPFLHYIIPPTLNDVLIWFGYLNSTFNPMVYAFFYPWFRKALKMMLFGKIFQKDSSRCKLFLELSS
Description: Agonist activity at human TAAR1 expressed in HEK293 cells assessed as cAMP accumulation after 20 mins by BRET assay. Type of experiment: functional, cell-based.

For experiment [4], the target named is T3, Trace amine-associated receptor 1 (Homo sapiens) (UniProt Q96RJ0).
T3 sequence (whole entry): T2 sequence (Q96RJ0 whole entry)
Description: Agonist activity at human TAAR1 expressed in HEK293 cells assessed as cAMP accumulation at 10 uM after 20 mins by BRET assay relative to beta-PEA. Type of experiment: functional, cell-based.

Experiment [5] has as its target Trace amine-associated receptor 1 (Mus musculus) (UniProt Q923Y8). Nature of the experiment: Agonist activity at mouse TAAR1 expressed in HEK293 cells assessed as cAMP accumulation at 10 uM after 20 mins by BRET assay relative to beta-PEA. Type of experiment: functional, cell-based.
Experiment [6] can be described thus: Selectivity ratio of EC50 for mouse TAAR1 to EC50 for human TAAR1.

Sequence of Trace amine-associated receptor 1 (Mus musculus) (Q923Y8 whole entry, the tested form may be a part): as the sequence (Q923Y8 whole entry) above

Turning to `N=C(N)/N=C(\N)N1CCN(c2ccc(Cl)cc2)CC1`, the EC50 in experiment [1] was above 10 µM.
As to `NCCc1ccccc1` [PHENETHYLAMINE], the concentration giving a half-maximal response (EC50) in experiment [2] was 0.12 µM.
Regarding `COc1ccccc1N1CCN(/C(N)=N/C(=N)N)CC1`, in experiment [1], the EC50 was above 10 µM.
For the compound `N=C(N)NC(=N)N1CCN(c2ccccc2)CC1`, the results for the EC50 in experiment [3], in experiment [1] and in experiment [2] were 1.38 µM, above 10 µM and 2.38 µM, respectively. Also, the figures for the Activity in experiment [4] and in experiment [5] were 81% and 46%, respectively. The Ratio EC50 in experiment [6] was 1.7.
As to `N=C(N)/N=C(\N)N1CCN(c2ccccn2)CC1`, the concentration for a half-maximal effect (EC50) in experiment [1] is above 10 µM.
The same measure, in the same setting: for `COc1cccc(N2CCN(/C(N)=N/C(=N)N)CC2)c1` the value was above 10 µM; for `N=C(N)/N=C(\N)N1CCN(c2cccc(C(F)(F)F)c2)CC1`, above 10 µM; for `N=C(N)/N=C(\N)N1CCN(c2cccc(Cl)c2)CC1`, above 10 µM.
Take `COc1ccc(N2CCN(/C(N)=N/C(=N)N)CC2)cc1`: the EC50 in experiment [3] is 11.4 µM; in experiment [1], above 10 µM. For the same compound, the Activity in experiment [4] is 110%.
`N=C(N)/N=C(\N)N1CCN(c2ccccc2Cl)CC1`: the Activity in experiment [5] came to 57%. Also, the EC50 in experiment [1] was above 10 µM; in experiment [2] it was 2.66 µM.
Take `N=C(N)/N=C(\N)N1CCN(c2ncccn2)CC1`: in experiment [5], the Activity came out at 40%. The EC50 was above 10 µM in experiment [1] and 9 µM in experiment [2].
